Tested on: reporter gene (firefly luciferase) expression in the liver
Experiment: Luciferase expression in mouse liver following tail vein injection of mRNA lipid nanoparticles
Assay type: in vivo
Conditions: increasing concentration of compound I-5 in the lipid nanoparticle
Protocol: Lipid nanoparticles were formulated with short chain PEG lipid at various molar ratios as described in Formulation Example 1. Relative activity was determined by measuring luciferase expression in the mouse liver 4 hours following administration via tail vein injection.
Increasing concentration of compound I-5 reduced the overall expression of the reporter gene (firefly luciferase) in the liver (see, e.g., Table 4). Lipid nanoparticle systems that included compound I-5 at a concentration of 5 mol % reduced the amount of expression by ˜50% while lipid nanoparticle systems including compound I-5 at 10 mol % reduced to 20% of benchmark (lipid nanoparticle system with no compound I-5). […] However, 2.5 mol % compound I-5 changed the expression kinetic. […] Lipid nanoparticle systems with compound I-5 at a concentration of 2.5 mol % also provided a benefit of prolonged expression since at 16 hours the same system had ˜4-fold expression in comparison to the lipid nanoparticle system with no compound I-5.

`CCCCCCCCCCCCCCN(CCCCCCCCCCCCCC)C(=O)CCC(=O)OCCOCCOCCOC` [compound I-5] was tested, and the “overall expression of the reporter gene (firefly luciferase) in the liver” value was “reduced”.

— patent publication US20250161227A1, “PEGYLATED LIPIDS” (Acuitas Therapeutics, Inc., priority 2023, published 2025)
